# Reference: patent publication US12398117B2, “Heteroarylamidopyridinol derivative and pharmaceutical composition comprising same as active ingredient for prevention or treatment of autoimmune disease” (INNOVO THERAPEUTICS INC., priority 2019, dated 2025)
# What was measured:
# [1] = system: adhesion of intestinal epithelial cells (HT-29) and monocytic cells (U937) induced by IL-6; test: Inhibition of IL-6-induced adhesion of monocytes and intestinal epithelial cells; assay type: cell-based, human; conditions: Homo sapiens, 3 h; test drug 1 μM; IL-6 10 ng/mL; HT-29/U937; read-out: inhibitory activity (%)
# Protocol: (§1) The inhibitory activity test for intestinal epithelial cell-monocyte adhesion by IL-6 was performed using the same method as in the case of TNF-α. HT-29 cells were cultured in a 24-well plate at the density of 2×10^5 cells/cm^2, and the test drug was pretreated in a medium containing 1% FBS and 1% PS for 1 hour. Thereafter, 10 μg/mL of BCECF-AM was treated thereto and reacted at 37° C. for 30 minutes. U937 cells loaded with BCECF and IL-6 (10 ng/mL) were reacted with HT-29 cells previously treated with the test drug at 37° C. for 3 hours. Upon completion of the reaction, the medium was removed, and the culture flask was washed twice with PBS to remove non-adherent U937 cells. In the next step, the cells were lysed by treating with 0.1% Triton X-100 (0.1 M Tris) and reacted at room temperature for 30 minutes. Then, fluorescence was measured and quantified using a fluostar optima microplate reader (BMG Labtechnologies, Germany).
# [2] = system: TNBS-induced inflammatory bowel disease rat model; test: Oral efficacy in TNBS-induced inflammatory bowel disease rat model; assay type: in vivo, Sprague Dawley rats
# Protocol: (§2) Sprague Dawley rats aged 7-8 weeks were purchased from OrientBio (Korea), stabilized with general solid feed for 3 days, and then used in this experiment. Feed and water were freely supplied during the experiment period, and the temperature of the breeding room was maintained at 25±1° C. and the relative humidity at 50±10%. Lighting management was controlled in a 12-hour light-dark cycle by an automatic lighting controller.
# After anesthetizing rats that had been fasted for 24 hours with diethyl ether, 0.8 mL of 5% TNBS diluted with 50v/v % ethanol was slowly injected into the lumen of the colon using a 1 mL syringe connected to a polyethylene catheter, and then, the rats were left standing for 60 seconds in an inverted position in order to prevent 5% TNBS from leaking into the anus. For the control group, only vehicle [50v/v % ethanol] was injected in the same manner as in the other groups (Thapa et al., 2008).
# In order to investigate the effect of the drug, the drug was administered at a constant time every day for 5 days from the day after the TNBS treatment.
# Changes in body weight of each rat were observed from the fasting stage to the TNBS administration and drug administration process using a digital mass meter.
# The colon of the rat was extracted, and the tissue 5-6 cm away from the anus was cut into a length of 1 cm, and the weight of the tissue was measured.
# The weighed rat tissues were fixed with 4% paraformaldehyde solution, and then transferred to 30% sucrose solution. When the tissues subside, they were taken out and cut into […] thick using a cryomicrotome (Microm HM 450, Thermo Fisher Scientific, Germany) and stored in a cryopreservation solution. After washing the tissue section with KPBS, the tissue section was attached to a slide glass, dried, and then stained with hematoxylin & Eosin and observed under a microscope.
# [3] = system: adhesion of intestinal epithelial cells (HT-29) and monocytic cells (U937) induced by TNF-α; test: Inhibition of TNF-α-induced adhesion of monocytes and intestinal epithelial cells; assay type: cell-based, human; conditions: Homo sapiens; for inhibition at 1 µM: test drug 1 μM, TNF-α 10 ng/mL, HT-29/U937, read-out: Inhibitory activity (%)
# Protocol: as §1, with “HT-29 human colon cancer-derived” for “The inhibitory activity test for intestinal”, “cells and U937 human-derived monocytes were cultured in RPMI 1640 medium containing 10% FBS and 1% penicillin/streptomycin (PS) in a 37° C., 5% CO2 incubator. When” for “cell-monocyte adhesion by IL-6 was performed using”, “cells grew more than 80% of the bottom area of the culture flask, they were passaged at a ratio of 1:3 and used” for “same method as”, “this experiment.” for “the case of TNF-α.”, “TNF-α” for “IL-6”, “Germany) (Carvalho et al., 1996; Thapa et al., 2008).” for “Germany).”
# [4] = system: DSS-induced chronic enteritis mouse model; test: Oral efficacy in DSS-induced chronic enteritis mouse model; assay type: in vivo, C57BL/6 mice; conditions: chronic enteritis (DSS-water-DSS, total 35 days), mouse
# Protocol: as §2, with “C57BL/6 mice” for “Sprague Dawley rats”, “7” for “3”
# Enteritis was induced in mice by allowing them to freely ingest drinking water containing 2% DSS salt (M.W. 36,000˜50,000, MP Biomedicals, LLC, OH, USA). For the chronic enteritis model, DSS was administered using a schedule of DSS administration for the first 7 days, administration of normal drinking water for 14 days, repeated administration of DSS for 7 days from the 21st day, and administration of normal drinking water for 7 days. The drug was administered once a day, 6 days a week from the first day of DSS treatment (FIG. 2A). […] In order to measure the dose-dependent therapeutic effect of the drug in the acute enteritis model, DSS was administered for 5 days to induce enteritis, and then the drug was administered for 14 days to measure the degree of recovery and treatment of enteritis (FIG. 3A). The drug was administered orally once daily for […] at a fixed time.
# Changes in body weight of each mouse were observed during the DSS and drug administration using a digital mass meter.
# The colon of the mouse was extracted, and the length and weight from the anus to the cecum were measured.
# Tissue staining was performed in the same manner as in the case of hematoxylin/eosin staining of the rat colon tissue, and scoring indexes of mucosal damage and recovery were applied in the same way.
# [5] = oral 1 mg/kg, 5 days, fixed-dose test (Table 6)
# [6] = 10 mg/kg, dose-dependence test (Table 7)
SMILES,inhibition at 1 µM [1],"Body weight recovery rate (%) [2, 5]","Intestinal weight recovery rate (%) [2, 5]",inhibition at 1 µM [3],further results
"Cc1nc(NC(=O)c2cc3cc(Br)ccc3[nH]2)c(C)c(C)c1O [Compound X-07, 5-bromo-N-(5-hydroxy-3,4,6-trimethylpyridin-2-yl)-1H-indole-2-carboxamide]",80.3%,72.9%,94.9%,88.9%,–
"Cc1nc(NC(=O)c2sc3cc(F)ccc3c2Cl)c(C)c(C)c1O [Compound X-24, 3-chloro-6-fluoro-N-(5-hydroxy-3,4,6-trimethylpyridin-2-yl)benzo[b]thiophene-2-carboxamide]",–,86.6%,97.4%,–,IC50 ([3]; inhibition of adhesion by TNF-α): 230 nM; Body weight recovery rate (%) ([4]; 1 mg/kg): 22.8%; Intestinal weight recovery rate (%) ([4]; 1 mg/kg): 58.1%; Body weight recovery rate (%) ([4]; 3 mg/kg): 73.3%; Intestinal weight recovery rate (%) ([4]; 3 mg/kg): 98.2%
"C[C@]12C=CC(=O)C=C1CC[C@H]1[C@@H]3C[C@@H](O)[C@](O)(C(=O)CO)[C@@]3(C)C[C@H](O)[C@@]12F [Triamcinolone, reference compound]",–,–,–,–,"Body weight recovery rate (%) [2, 6]: 70.0%; Intestinal weight recovery rate (%) [2, 6]: 84.5%"
"Cc1nc(NC(=O)c2sc3cc(F)ccc3c2Cl)c(C)c(C)c1OCC(=O)Nc1ccccc1 [XI-07, 3-chloro-6-fluoro-N-(3,4,6-trimethyl-5-(2-oxo-2-(phenylamino)ethoxy)pyridin-2-yl)benzo[b]thiophene-2-carboxamide]",72.8%,82.9%,91.0%,84.1%,–
"Cc1nc(NC(=O)c2sc3cc(F)ccc3c2Cl)c(C)c(C)c1OC(=O)c1ccccc1 [XI-08, 6-(3-chloro-6-fluorobenzo[b]thiophene-2-carboxamido)-2,4,5-trimethylpyridin-3-yl benzoate]",6.8%,–,–,7.7%,–
"Cc1nc(NC(=O)c2sc3cc(F)ccc3c2Cl)c(C)c(C)c1OC(=O)c1ccc(F)cc1 [XI-09, 6-(3-chloro-6-fluorobenzo[b]thiophene-2-carboxamido)-2,4,5-trimethylpyridin-3-yl 4-fluorobenzoate]",21.2%,–,–,3.4%,–
"COc1cccc(C(=O)Oc2c(C)nc(NC(=O)c3sc4cc(F)ccc4c3Cl)c(C)c2C)c1 [XI-10, 6-(3-chloro-6-fluorobenzo[b]thiophene-2-carboxamido)-2,4,5-trimethylpyridin-3-yl 3-methoxybenzoate]",13.1%,–,–,46.5%,–
"COc1ccc(C(=O)Oc2c(C)nc(NC(=O)c3sc4cc(F)ccc4c3Cl)c(C)c2C)cc1 [XI-11, 6-(3-chloro-6-fluorobenzo[b]thiophene-2-carboxamido)-2,4,5-trimethylpyridin-3-yl 4-methoxybenzoate]",67%,–,–,77.2%,–
"Cc1nc(NC(=O)c2sc3cc(F)ccc3c2Cl)c(C)c(C)c1OC(=O)c1ccc(F)cn1 [XI-12, 6-(3-chloro-6-fluorobenzo[b]thiophene-2-carboxamido)-2,4,5-trimethylpyridin-3-yl 5-fluoropicolinate]",18%,–,–,31.9%,–
"Cc1nc(NC(=O)c2sc3cc(F)ccc3c2Cl)c(C)c(C)c1OC(=O)c1ccc(F)nc1 [XI-13, 6-(3-chloro-6-fluorobenzo[b]thiophene-2-carboxamido)-2,4,5-trimethylpyridin-3-yl 6-fluoronicotinate]",15.2%,–,–,20.7%,–
"Cc1nc(NC(=O)c2sc3cc(F)ccc3c2Cl)c(C)c(C)c1OC(=O)c1ccc(Cl)cn1 [XI-14, 6-(3-chloro-6-fluorobenzo[b]thiophene-2-carboxamido)-2,4,5-trimethylpyridin-3-yl 5-chloropicolinate]",26.8%,–,–,38.1%,–
"Cc1nc(NC(=O)c2sc3cc(F)ccc3c2Cl)c(C)c(C)c1OC(=O)C12CC3CC(CC(C3)C1)C2 [XI-16, 6-(3-chloro-6-fluorobenzo[b]thiophene-2-carboxamido)-2,4,5-trimethylpyridin-3-yl (3r,5r,7r)-adamantane-1-carboxylate]",20.3%,–,–,29.2%,–
"Cc1nc(NC(=O)c2sc3cc(F)ccc3c2Cl)c(C)c(C)c1OC(=O)N1CCOCC1 [XI-17, 6-(3-chloro-6-fluorobenzo[b]thiophene-2-carboxamido)-2,4,5-trimethylpyridin-3-yl morpholine-4-carboxylate]",59.6%,60.2%,79.8%,≥ 50%,–
